Where a name gives a salt, the structure may show the parent alone. Read-outs that look alike come from different tables or passages of the source.
How the values were obtained:
[1] = biological target: T1, SARS-CoV-2 PLpro (nsp3 1564–1878) (Severe acute respiratory syndrome coronavirus 2, UniProt P0DTD1); experiment: biochemical; parameters: FRET-quenched peptide (Pro3) cleavage by PLpro, 10 min pre-incubation, slope over 20 min, normalised to no-compound control; details: read-out: % of control remaining
[2] = biological target: T1, SARS-CoV-2 PLpro (nsp3 1564–1878); experiment: biochemical; parameters: FRET-quenched peptide (Pro3) cleavage by PLpro, 10 min pre-incubation, slope over 20 min, normalised to no-compound control; details: read-out: % of control remaining; remark: listed apart in the source

CCc1c(C(=O)C(N)=O)c2c(OCC(=O)O)cccc2n1Cc1ccccc1 [Varespladib (LY315920)]
remaining activity at 1.25 µM ([1]; Well no.=4663, low concentration screen): 105%
remaining activity at 3.75 µM ([2]; Well no.=4663, high concentration screen): 104%

O=C1CCc2cc(OCCCCc3nnnn3C3CCCCC3)ccc2N1 [Cilostazol]
remaining activity at 1.25 µM ([1]; Well no.=281, low concentration screen): 94.5%
remaining activity at 3.75 µM ([2]; Well no.=281, high concentration screen): 95.3%

CCOC(=O)c1ccc(OC(=O)CCCCCNC(=N)N)cc1 [Gabexate mesylate]
remaining activity at 1.25 µM ([1]; Well no.=5092, low concentration screen): 97.5%
remaining activity at 3.75 µM ([2]; Well no.=5092, high concentration screen): 102%

O=C(O)CCCc1ccccc1 [Sodium Phenylbutyrate]
remaining activity at 1.25 µM ([1]; Well no.=1582, low concentration screen): 106%
remaining activity at 3.75 µM ([2]; Well no.=1582, high concentration screen): 103%

CC1Cc2cc3c(cc2C(c2ccc(N)cc2)=NN1)OCO3 (centres unmarked) [GYKI 52895]
remaining activity at 1.25 µM ([1]; Well no.=414, low concentration screen): 95.2%
remaining activity at 3.75 µM ([2]; Well no.=414, high concentration screen): 95.8%

O=C(N[C@H]1CCS[C@H]2CCC[C@@H](C(=O)O)N2C1=O)[C@@H](S)Cc1ccccc1 [Omapatrilat]
remaining activity at 1.25 µM ([1]; Well no.=8466, low concentration screen): 99.9%
remaining activity at 3.75 µM ([2]; Well no.=8466, high concentration screen): 95%

COc1ccc(CC(=O)O)cc1OC [3,4-Dimethoxyphenylacetic acid]
remaining activity at 1.25 µM ([1]; Well no.=6639, low concentration screen): 103%
remaining activity at 3.75 µM ([2]; Well no.=6639, high concentration screen): 104%

CCCCCCCCCCCCCC(=O)O [Myristic acid]
remaining activity at 1.25 µM ([1]; Well no.=6979, low concentration screen): 101%
remaining activity at 3.75 µM ([2]; Well no.=6979, high concentration screen): 102%

COc1ccccc1OCC(O)CO (centres unmarked) [Guaifenesin]
remaining activity at 1.25 µM ([1]; Well no.=2180, low concentration screen): 97.5%
remaining activity at 3.75 µM ([2]; Well no.=2180, high concentration screen): 100%

CC(C)=CCC[C@](C)(O)[C@H]1CC[C@]2(C)[C@@H]1[C@H](O)C[C@@H]1[C@@]3(C)CC[C@H](O)C(C)(C)[C@@H]3CC[C@]12C [(20S)-Protopanaxadiol]
remaining activity at 1.25 µM ([1]; Well no.=6300, low concentration screen): 106%
remaining activity at 3.75 µM ([2]; Well no.=6300, high concentration screen): 99.5%

C[C@]12CC[C@H](O)C[C@H]1CC[C@@H]1[C@@H]2CC[C@]2(C)[C@@H](C3=CC(=O)OC3)[C@@H](O)C[C@]12O [Gitoxigenin]
remaining activity at 1.25 µM [1]: 105%
remaining activity at 3.75 µM [2]: 104%

C=CC(=O)Nc1cccc(Oc2nc(Nc3ccc(N4CCN(C)CC4)cc3)ncc2Cl)c1 [WZ3146]
remaining activity at 1.25 µM ([1]; Well no.=4711, low concentration screen): 103%
remaining activity at 3.75 µM ([2]; Well no.=4711, high concentration screen): 106%

NC(=O)c1ccc(N(C(N)=O)c2c(F)cccc2F)nc1-c1ccc(F)cc1F [VX702]
remaining activity at 1.25 µM ([1]; Well no.=2943, low concentration screen): 104%
remaining activity at 3.75 µM ([2]; Well no.=2943, high concentration screen): 105%

COc1ccc2c(c[n+](C)c3c4cc5c(cc4ccc23)OCO5)c1OC [Chelerythrine]
remaining activity at 1.25 µM ([1]; Well no.=3533, low concentration screen): 102%
remaining activity at 3.75 µM ([2]; Well no.=3533, high concentration screen): 101%

CCCCC[C@@H](/C=C/C=C\CCCCCCCC(=O)O)OO [13(S)-HPODE]
remaining activity at 1.25 µM ([1]; Well no.=4388, low concentration screen): 102%
remaining activity at 3.75 µM ([2]; Well no.=4388, high concentration screen): 101%

CCCN(CCc1cccs1)[C@H]1CCc2c(O)cccc2C1 [Rotigotine]
remaining activity at 1.25 µM ([1]; Well no.=8349, low concentration screen): 92.3%
remaining activity at 3.75 µM ([2]; Well no.=8349, high concentration screen): 88.8%

O=C(O[C@@H]1Cc2c(O)cc(O)cc2O[C@@H]1c1cc(O)c(O)c(O)c1)c1cc(O)c(O)c(O)c1 [Epigallocatechin gallate]
remaining activity at 1.25 µM ([1]; Well no.=3895, low concentration screen): 98.4%
remaining activity at 3.75 µM ([2]; Well no.=3895, high concentration screen): 101%

O=C(O)CCc1ccc(NCc2cccc(Oc3ccccc3)c2)cc1 [GW9508]
remaining activity at 1.25 µM ([1]; Well no.=5182, low concentration screen): 103%
remaining activity at 1.25 µM ([1]; Well no.=8531, low concentration screen): 97.9%
remaining activity at 3.75 µM ([2]; Well no.=5182, high concentration screen): 99.8%
remaining activity at 3.75 µM ([2]; Well no.=8531, high concentration screen): 98.8%

COC(=O)[C@H](CCSC)NC(=O)c1ccc(NC[C@@H](N)CS)cc1-c1ccccc1 [FTI-277 (hydrochloride)]
remaining activity at 1.25 µM ([1]; Well no.=8508, low concentration screen): 101%
remaining activity at 3.75 µM ([2]; Well no.=8508, high concentration screen): 102%

CN1CC(=O)N2[C@H](c3ccc4c(c3)OCO4)c3[nH]c4ccccc4c3C[C@@H]2C1=O [Tadalafil]
remaining activity at 1.25 µM ([1]; Well no.=8188, low concentration screen): 95%
remaining activity at 3.75 µM ([2]; Well no.=8188, high concentration screen): 95.9%

COc1cccc2c1C(=O)c1c(O)c3c(c(O)c1C2=O)C[C@@](O)(C(C)=O)C[C@@H]3O[C@H]1C[C@H](N)[C@H](O)[C@H](C)O1 [Daunorubicin hydrochloride]
remaining activity at 1.25 µM ([1]; Well no.=728, low concentration screen): 94%
remaining activity at 3.75 µM ([2]; Well no.=728, high concentration screen): 94.8%

CC(C)n1c(/C=C/[C@H](O)C[C@H](O)CC(=O)O)c(-c2ccc(F)cc2)c2ccccc21 [Fluvastatin]
remaining activity at 1.25 µM ([1]; Well no.=1902, low concentration screen): 97.7%
remaining activity at 3.75 µM ([2]; Well no.=1902, high concentration screen): 98.9%

CCCCCCCC(=O)c1c(O)cc(O)cc1CC(=O)OCC [Cytosporone B]
remaining activity at 1.25 µM ([1]; Well no.=5993, low concentration screen): 98.3%
remaining activity at 3.75 µM ([2]; Well no.=5993, high concentration screen): 98.7%

CC(CCc1ccccc1)NC(C)C(O)c1ccc(O)cc1 (centres unmarked) [Nylidrin hydrochloride]
remaining activity at 1.25 µM ([1]; Well no.=940, low concentration screen): 96%
remaining activity at 3.75 µM ([2]; Well no.=940, high concentration screen): 95.1%

CC1CN(S(=O)(=O)c2cccc3cnccc23)CCN1 (centres unmarked) [1-(5-Isoquinolinylsulfonyl)-3-methylpiperazine dihydrochloride]
remaining activity at 1.25 µM ([1]; Well no.=869, low concentration screen): 106%
remaining activity at 3.75 µM ([2]; Well no.=869, high concentration screen): 104%

CCCCCCCC/C=C\CCCCCCCC(=O)OCC(CO)OC(=O)CCCCCCC/C=C\CCCCCCCC (centres unmarked) [1,2-Dioleoyl-glycerol (18:1)]
remaining activity at 1.25 µM ([1]; Well no.=4478, low concentration screen): 96%
remaining activity at 3.75 µM ([2]; Well no.=4478, high concentration screen): 100%

Cc1cc2c(F)c(Oc3ncnn4cc(OC[C@@H](C)OC(=O)[C@H](C)N)c(C)c34)ccc2[nH]1 [Brivanib alaninate (BMS-582664)]
remaining activity at 1.25 µM ([1]; Well no.=5049, low concentration screen): 102%
remaining activity at 3.75 µM ([2]; Well no.=5049, high concentration screen): 104%

CC(C)(C)NC(=O)[C@H]1CC[C@H]2[C@@H]3CC[C@H]4NC(=O)C=C[C@]4(C)[C@H]3CC[C@]12C [Finasteride]
remaining activity at 1.25 µM ([1]; Well no.=2086, low concentration screen): 99%
remaining activity at 3.75 µM ([2]; Well no.=2086, high concentration screen): 104%

COc1cccc(-c2cc(=O)c3ccccc3o2)c1N [PD 98,059]
remaining activity at 1.25 µM ([1]; Well no.=1457, low concentration screen): 94.9%
remaining activity at 3.75 µM ([2]; Well no.=1457, high concentration screen): 95.8%

O=[N+]([O-])c1cccc2cn[nH]c12 [7-Nitroindazole]
remaining activity at 1.25 µM ([1]; Well no.=955, low concentration screen): 107%
remaining activity at 3.75 µM ([2]; Well no.=955, high concentration screen): 100%

CC(=O)OC(C)C[N+](C)(C)C (centres unmarked) [Methacholine (chloride)]
remaining activity at 1.25 µM ([1]; Well no.=6323, low concentration screen): 100%
remaining activity at 3.75 µM ([2]; Well no.=6323, high concentration screen): 98.1%

N[C@H](Cc1c[nH]c2ccccc12)C(=O)N/N=C/c1ccc2nccnc2c1 [Rhosin (hydrochloride)]
remaining activity at 1.25 µM ([1]; Well no.=7170, low concentration screen): 91.4%
remaining activity at 3.75 µM ([2]; Well no.=7170, high concentration screen): 93%

C[C@]12C=CC(=O)C=C1CC[C@@H]1[C@@H]2C(=O)C[C@@]2(C)[C@H]1CC[C@]2(O)C(=O)CO [Prednisone]
remaining activity at 1.25 µM ([1]; Well no.=2149, low concentration screen): 97.7%
remaining activity at 1.25 µM ([1]; Well no.=7429, low concentration screen): 109%
remaining activity at 3.75 µM ([2]; Well no.=2149, high concentration screen): 103%
remaining activity at 3.75 µM ([2]; Well no.=7429, high concentration screen): 101%

CN1C(=O)CC[C@H]1c1cccnc1 [(-)-Cotinine]
remaining activity at 1.25 µM ([1]; Well no.=228, low concentration screen): 97.9%
remaining activity at 1.25 µM ([1]; Well no.=3103, low concentration screen): 99.3%
remaining activity at 3.75 µM ([2]; Well no.=228, high concentration screen): 99.4%
remaining activity at 3.75 µM ([2]; Well no.=3103, high concentration screen): 101%

From paper PMC8286840, “Identifying SARS-CoV-2 antiviral compounds by screening for small molecule inhibitors of Nsp3 papain-like protease” (Biochemical Journal, 2021)
